Test [1] concerns Mouse colon cancer, Colon26. In words: Antitumor effect, Test Example 3: subcutaneously transplanted Colon26 in mice, single intravenous administration. The conditions noted are these: 200 mg/kg (as combretastatin A-4), single i.v. The format is in vivo, mouse (female CDF1 mice). The protocol: (§1) Mouse colon cancer, Colon26, maintained by serial subcutaneous subculture in mice was minced into about 1-mm square fragments, and the fragments were subcutaneously transplanted on the dorsal part of female CDF1 mice with a trocar. Seven days after tumor transplantation, the high-molecular weight conjugate of the present invention (compound 2 and compound 3) or a control drug (combretastatin A-4 phosphoric acid ester) synthesized by a method according to Non-Patent Document 1 was administered a single time intravenously to the mouse tail vein, at a dose respectively calculated on the basis of combretastatin A-4. The control is a group not given the drug. Compound 2, compound 3 and the control drug were all dissolved in a 5% glucose injection solution and used. After the administration, the major axis (L mm) and the minor axis (W mm) of the tumor were measured using a caliper, and the volume of tumor was calculated by the formula: (L×W^2)/2.

The subject of test [2] is Mouse colon cancer, Colon26. In words: Antitumor effect, Test Example 2: subcutaneously transplanted Colon26 in mice, single intravenous administration. The format is in vivo, mouse (female CDF1 mice). The note with it: single i.v. The protocol:
as §1, with “2-mm” for “1-mm”, “1)” for “2 and compound 3)”, “A-4)” for “A-4 phosphoric acid ester) synthesized by a method according to Non-Patent Document 1”, “1 was” for “2, compound 3 and the control drug were all”, “used. Combretastatin A-4 was dissolved in dimethylsulfoxide and Cremophor EL (manufactured by Sigma-Aldrich Company), and was used after diluted with a 5% glucose injection solution at the time of use.” for “used.”

For the compound `COc1ccc(/C=C\c2cc(OC)c(OC)c(OC)c2)cc1OP(=O)(O)O` [Combretastatin A-4 phosphoric acid ester, combretastatin A-4 phosphoric acid ester], the “relative tumor volume based on the tumor volume on the day of initiation of administration” value (“relative tumor volume based” for short) in test [1] (day 0 after administration) came out at 1.00; in test [1] (day 2 after administration), 1.57; in test [1] (day 4 after administration), 3.12; in test [1] (day 7 after administration), 9.33; in test [1] (day 9 after administration) it was 10.11.

On to `COc1ccc(/C=C\c2cc(OC)c(OC)c(OC)c2)cc1O` [Combretastatin A-4, combretastatin A-4], for which the “relative tumor volume based” value stood at 1.00 in test [2] (200 mg/kg (as combretastatin A-4), day 0 after administration); 1.77 in test [2] (200 mg/kg (as combretastatin A-4), day 2 after administration); 3.73 in test [2] (200 mg/kg (as combretastatin A-4), day 4 after administration); 9.25 in test [2] (200 mg/kg (as combretastatin A-4), day 7 after administration); 12.03 in test [2] (200 mg/kg (as combretastatin A-4), day 8 after administration); 1.00 in test [2] (400 mg/kg, day 0 after administration). For the same compound, the “relative tumor volume based” value came to 1.24 in test [2] (400 mg/kg, day 2 after administration); 2.21 in test [2] (400 mg/kg, day 4 after administration); 5.09 in test [2] (400 mg/kg, day 7 after administration); 6.41 in test [2] (400 mg/kg, day 8 after administration).

The record behind these values is US20100004403A1, “High-Molecular Weight Conjugate of Combretastatins” (priority 2006, published 2010).
